According to ChEMBL document CHEMBL5291721, “A preclinical secondary pharmacology resource illuminates target-adverse drug reaction associations of marketed drugs” (Nat Commun, 2023):

Legend:
[1] = target: T1, Muscarinic acetylcholine receptor M1 (Homo sapiens, UniProt P11229); assay type: functional, cell-based
T1 sequence (P11229 whole entry): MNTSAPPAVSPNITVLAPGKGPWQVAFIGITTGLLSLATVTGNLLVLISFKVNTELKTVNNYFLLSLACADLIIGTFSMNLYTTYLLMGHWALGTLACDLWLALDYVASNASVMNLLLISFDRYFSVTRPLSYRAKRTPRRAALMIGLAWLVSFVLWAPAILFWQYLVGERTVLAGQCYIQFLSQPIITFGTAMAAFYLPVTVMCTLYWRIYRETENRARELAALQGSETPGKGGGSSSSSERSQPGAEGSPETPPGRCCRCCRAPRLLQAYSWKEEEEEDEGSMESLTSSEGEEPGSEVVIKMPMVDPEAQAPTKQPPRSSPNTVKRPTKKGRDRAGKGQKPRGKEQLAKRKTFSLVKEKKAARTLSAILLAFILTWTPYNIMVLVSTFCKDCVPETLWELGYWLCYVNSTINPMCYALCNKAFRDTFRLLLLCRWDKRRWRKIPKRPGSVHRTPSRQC

[2] = target: Prostaglandin G/H synthase 1 (Homo sapiens, UniProt P23219); assay type: functional
Chain of Prostaglandin G/H synthase 1 (P23219 whole entry): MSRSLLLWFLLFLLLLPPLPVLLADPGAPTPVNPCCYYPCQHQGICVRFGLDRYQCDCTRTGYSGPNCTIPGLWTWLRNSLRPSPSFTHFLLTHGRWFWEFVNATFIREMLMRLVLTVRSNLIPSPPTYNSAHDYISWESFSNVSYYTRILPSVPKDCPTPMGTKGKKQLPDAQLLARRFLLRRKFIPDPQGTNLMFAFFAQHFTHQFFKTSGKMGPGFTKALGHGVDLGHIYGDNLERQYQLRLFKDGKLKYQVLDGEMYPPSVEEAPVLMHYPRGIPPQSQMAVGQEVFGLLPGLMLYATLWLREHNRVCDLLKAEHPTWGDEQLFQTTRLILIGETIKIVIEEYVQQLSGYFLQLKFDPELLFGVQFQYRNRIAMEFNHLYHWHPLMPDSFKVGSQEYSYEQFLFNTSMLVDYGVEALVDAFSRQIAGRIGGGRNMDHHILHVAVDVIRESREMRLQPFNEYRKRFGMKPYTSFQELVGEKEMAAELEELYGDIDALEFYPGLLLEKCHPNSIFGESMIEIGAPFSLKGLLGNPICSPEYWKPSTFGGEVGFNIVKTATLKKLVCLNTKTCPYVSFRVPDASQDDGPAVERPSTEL

[3] = target: T2, 5-hydroxytryptamine receptor 1A (Homo sapiens, UniProt P08908)
T2 sequence (P08908 whole entry): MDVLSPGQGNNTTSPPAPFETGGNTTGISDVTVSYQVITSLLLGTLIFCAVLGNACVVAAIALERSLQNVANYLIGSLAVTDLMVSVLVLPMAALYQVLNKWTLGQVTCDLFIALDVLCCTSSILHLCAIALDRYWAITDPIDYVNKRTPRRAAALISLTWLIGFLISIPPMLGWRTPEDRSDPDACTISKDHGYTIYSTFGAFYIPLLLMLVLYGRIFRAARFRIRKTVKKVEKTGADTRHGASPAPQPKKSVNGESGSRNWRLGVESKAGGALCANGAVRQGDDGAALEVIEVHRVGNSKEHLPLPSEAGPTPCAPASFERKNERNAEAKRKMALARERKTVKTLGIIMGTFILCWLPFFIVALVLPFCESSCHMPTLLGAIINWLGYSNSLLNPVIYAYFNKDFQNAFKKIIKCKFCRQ

Estrogen receptor = target: T3, Estrogen receptor (Homo sapiens, UniProt P03372)
T3 sequence (P03372 whole entry): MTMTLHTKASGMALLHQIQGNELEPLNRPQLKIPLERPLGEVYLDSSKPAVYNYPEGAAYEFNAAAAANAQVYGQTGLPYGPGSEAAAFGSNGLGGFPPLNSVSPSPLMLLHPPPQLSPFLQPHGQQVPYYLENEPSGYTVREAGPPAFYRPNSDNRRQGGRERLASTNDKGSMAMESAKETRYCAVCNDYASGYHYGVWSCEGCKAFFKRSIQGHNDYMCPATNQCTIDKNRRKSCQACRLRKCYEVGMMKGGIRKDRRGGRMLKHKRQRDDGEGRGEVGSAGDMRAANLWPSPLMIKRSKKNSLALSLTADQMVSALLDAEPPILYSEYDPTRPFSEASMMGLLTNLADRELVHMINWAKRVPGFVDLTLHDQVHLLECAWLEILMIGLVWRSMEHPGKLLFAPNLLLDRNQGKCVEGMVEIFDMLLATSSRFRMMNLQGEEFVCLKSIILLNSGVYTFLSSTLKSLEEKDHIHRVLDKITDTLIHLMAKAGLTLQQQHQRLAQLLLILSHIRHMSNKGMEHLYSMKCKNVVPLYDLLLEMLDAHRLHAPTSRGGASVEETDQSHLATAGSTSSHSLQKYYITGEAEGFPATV

Histamine H3 receptor = Histamine H3 receptor (Homo sapiens, UniProt Q9Y5N1)
Chain of Histamine H3 receptor (Q9Y5N1 whole entry): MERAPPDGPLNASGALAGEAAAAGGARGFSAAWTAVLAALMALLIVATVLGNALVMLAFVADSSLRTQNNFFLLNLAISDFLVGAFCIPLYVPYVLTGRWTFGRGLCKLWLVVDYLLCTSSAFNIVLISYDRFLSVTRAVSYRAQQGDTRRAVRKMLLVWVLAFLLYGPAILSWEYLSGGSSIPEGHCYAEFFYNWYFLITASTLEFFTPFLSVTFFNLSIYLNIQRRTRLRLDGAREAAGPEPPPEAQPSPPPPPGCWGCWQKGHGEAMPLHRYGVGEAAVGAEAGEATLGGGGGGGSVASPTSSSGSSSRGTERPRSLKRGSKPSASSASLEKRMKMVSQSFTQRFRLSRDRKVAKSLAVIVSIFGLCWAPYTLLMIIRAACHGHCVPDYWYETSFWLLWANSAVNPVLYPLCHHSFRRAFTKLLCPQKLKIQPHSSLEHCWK

Thromboxane A2 receptor = target: T4, Thromboxane A2 receptor (Homo sapiens, UniProt P21731)
T4 sequence (P21731 whole entry): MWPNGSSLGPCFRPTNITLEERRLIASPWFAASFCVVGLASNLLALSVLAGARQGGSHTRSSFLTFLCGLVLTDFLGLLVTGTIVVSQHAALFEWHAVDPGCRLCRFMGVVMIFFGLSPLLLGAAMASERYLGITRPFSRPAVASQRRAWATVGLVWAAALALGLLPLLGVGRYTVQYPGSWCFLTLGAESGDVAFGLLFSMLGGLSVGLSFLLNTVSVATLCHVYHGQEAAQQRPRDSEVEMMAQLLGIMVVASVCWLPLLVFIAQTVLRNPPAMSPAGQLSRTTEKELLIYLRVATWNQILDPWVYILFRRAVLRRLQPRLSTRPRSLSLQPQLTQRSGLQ

[4] = target: T5, Alpha-2B adrenergic receptor (Homo sapiens, UniProt P18089)
T5 sequence (P18089 whole entry): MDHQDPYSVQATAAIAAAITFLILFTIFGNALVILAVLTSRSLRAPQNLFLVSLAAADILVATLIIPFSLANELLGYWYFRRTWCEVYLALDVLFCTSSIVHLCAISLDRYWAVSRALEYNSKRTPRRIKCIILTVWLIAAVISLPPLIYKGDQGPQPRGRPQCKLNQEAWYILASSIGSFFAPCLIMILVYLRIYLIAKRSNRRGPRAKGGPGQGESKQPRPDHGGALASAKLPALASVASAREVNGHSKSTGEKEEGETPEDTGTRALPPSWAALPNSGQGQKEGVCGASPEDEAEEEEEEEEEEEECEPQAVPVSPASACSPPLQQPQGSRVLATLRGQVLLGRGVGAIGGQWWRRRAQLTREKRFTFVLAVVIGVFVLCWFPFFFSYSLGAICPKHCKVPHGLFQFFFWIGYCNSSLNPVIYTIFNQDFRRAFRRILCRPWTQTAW

[5] = target: Kappa-type opioid receptor (Homo sapiens, UniProt P41145)
Chain of Kappa-type opioid receptor (P41145 whole entry): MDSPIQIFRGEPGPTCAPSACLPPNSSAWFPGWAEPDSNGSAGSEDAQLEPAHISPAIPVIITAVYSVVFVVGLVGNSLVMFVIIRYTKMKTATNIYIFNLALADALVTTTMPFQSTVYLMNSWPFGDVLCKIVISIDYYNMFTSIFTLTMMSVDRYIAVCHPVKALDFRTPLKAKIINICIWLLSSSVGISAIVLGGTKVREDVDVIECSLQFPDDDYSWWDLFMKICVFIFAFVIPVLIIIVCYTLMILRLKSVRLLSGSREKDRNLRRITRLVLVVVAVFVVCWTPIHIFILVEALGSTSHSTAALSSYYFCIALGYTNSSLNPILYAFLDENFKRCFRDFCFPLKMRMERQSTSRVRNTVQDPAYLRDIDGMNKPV

[6] = target: 5-hydroxytryptamine receptor 2A (Homo sapiens, UniProt P28223); assay type: functional, cell-based
Chain of 5-hydroxytryptamine receptor 2A (P28223 whole entry): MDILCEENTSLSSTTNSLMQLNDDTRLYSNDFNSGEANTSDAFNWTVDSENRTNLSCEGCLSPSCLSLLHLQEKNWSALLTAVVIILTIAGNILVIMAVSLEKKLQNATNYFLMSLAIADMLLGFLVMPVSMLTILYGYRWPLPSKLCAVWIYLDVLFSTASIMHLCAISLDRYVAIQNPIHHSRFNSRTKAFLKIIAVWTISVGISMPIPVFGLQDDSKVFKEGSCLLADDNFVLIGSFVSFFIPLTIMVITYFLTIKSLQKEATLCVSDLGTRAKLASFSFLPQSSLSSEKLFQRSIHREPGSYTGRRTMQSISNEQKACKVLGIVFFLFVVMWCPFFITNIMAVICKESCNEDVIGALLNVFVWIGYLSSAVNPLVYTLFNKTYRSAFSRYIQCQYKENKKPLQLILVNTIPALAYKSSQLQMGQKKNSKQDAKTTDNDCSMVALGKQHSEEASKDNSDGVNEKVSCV
Note: assay procedure not described here.

| Structure (SMILES) | AC50 [1] [µM] | AC50 [2] [µM] | AC50 [3] [µM] | AC50 (Estrogen receptor) [µM] | AC50 (Histamine H3 receptor) [µM] | AC50 (Thromboxane A2 receptor) [µM] | AC50 [4] [µM] | AC50 [5] [µM] | AC50 [6] [µM] |
| --- | --- | --- | --- | --- | --- | --- | --- | --- | --- |
| COc1cccc2c1C(=O)c1c(O)c3c(c(O)c1C2=O)C[C@@](O)(C(=O)CO)C[C@@H]3O[C@H]1C[C@H](N)[C@H](O[C@@H]2CCCCO2)[C@H](C)O1 [PIRARUBICIN] | > 10 | 1.57 | > 30 | > 30 |  |  |  |  |  |
| CC(C)Nc1cccnc1N1CCN(C(=O)c2cc3cc(NS(C)(=O)=O)ccc3[nH]2)CC1 [DELAVIRDINE] | 16.4 | > 30 | > 30 | > 30 |  |  |  |  |  |
| CO[C@@]1(NC(=O)C(C(=O)O)c2ccc(O)cc2)C(=O)N2C(C(=O)O)=C(CSc3nnnn3C)CO[C@@H]21 (stereo not given in full) [MOXALACTAM] | > 30 | > 30 | > 30 | > 30 |  |  |  |  |  |
| CNC1(c2ccccc2Cl)CCCCC1=O (stereo not given) [KETAMINE] |  | > 30 | > 30 | > 30 |  |  |  |  |  |
| Cc1cccc(C)c1NC(=O)c1cc(S(N)(=O)=O)c(Cl)cc1O [XIPAMIDE] | > 30 | > 30 | > 30 |  |  |  |  |  |  |
| C=CCOc1ccc(CC(=O)O)cc1Cl [ALCLOFENAC] | > 30 | > 3 | > 30 | > 30 |  |  |  |  |  |
| CN(C)CCC=C1c2ccccc2CCc2ccccc21 [AMITRIPTYLINE] |  | > 30 | 0.337 | > 30 | 24 | > 30 |  |  |  |
| C#CCN(C)Cc1ccccc1 [PARGYLINE] |  | > 30 | > 30 | > 30 |  |  | > 30 | > 30 | > 30 |
| O=c1[nH]c2ccccc2n1CCN1CCN(c2cccc(C(F)(F)F)c2)CC1 [FLIBANSERIN] |  | > 30 | 0.003 | > 30 |  |  |  |  |  |
| O=C1[C@@H]2[C@H]3CC[C@H](C3)[C@@H]2C(=O)N1C[C@@H]1CCCC[C@H]1CN1CCN(c2nsc3ccccc23)CC1 [LURASIDONE] |  | > 30 |  | > 30 | > 30 |  |  |  |  |
| CC1=C(C/C=C(\C)CCC[C@H](C)CCC[C@H](C)CCCC(C)C)C(=O)c2ccccc2C1=O [PHYTONADIONE] | > 30 | 13.4 | > 30 |  |  |  |  |  |  |
| O=C(Cc1cccs1)N[C@@H]1C(=O)N2C(C(=O)[O-])=C(C[n+]3ccccc3)CS[C@H]12 [CEPHALORIDINE] |  | > 30 | > 30 | > 30 |  |  | > 30 | > 30 | > 30 |
| CC(=O)Oc1ccccc1C(=O)O [ASPIRIN] |  |  | > 30 | > 30 | > 30 | > 30 |  | > 10 |  |
| CN(C)CCCC1(c2ccc(F)cc2)OCc2cc(C#N)ccc21 (stereo not given) [CITALOPRAM] |  | > 30 |  | > 30 | > 10 | > 30 |  | > 10 |  |
| CCOC(=O)[C@H](CCc1ccccc1)N[C@@H](C)C(=O)N1Cc2ccccc2C[C@H]1C(=O)O |  | > 30 | > 30 | > 30 | > 10 | > 30 |  | > 10 |  |
| C[C@H](Nc1ncnc2[nH]cnc12)c1cc2cccc(Cl)c2c(=O)n1-c1ccccc1 [DUVELISIB] |  | > 30 | > 30 | > 30 | > 30 |  | > 30 |  | 18 |
| Cc1c(C)c2c(c(C)c1O)CCC(C)(COc1ccc(CC3SC(=O)NC3=O)cc1)O2 (stereo not given) [TROGLITAZONE] |  | > 30 | 25.7 | > 30 | > 30 | > 30 |  | 18 |  |
| NC(=O)C1(N2CCCCC2)CCN(CCCN2c3ccccc3CCc3ccccc32)CC1 [CARPIPRAMINE] |  | > 30 | 2.83 | > 30 |  |  |  |  |  |
| O=C(O)[C@H](O)[C@@H](O)[C@H](O)[C@H](O)CO [GLUCONIC ACID] | > 30 | > 30 | > 30 |  |  |  |  |  |  |
| O=P1(N(CCCl)CCCl)NCCCO1 (stereo not given) [CYCLOPHOSPHAMIDE ANHYDROUS] |  | > 30 | > 30 | > 30 |  |  |  |  |  |
